This experiment concerns Nrf2 transcription factor (GST ARE luciferase reporter in AREc32 cells). As to the kind of experiment: AREc32 luciferase reporter assay. The class given is cell-based, human. The following applies: EC2×: concentration required to increase GST ARE luciferase reporter activity by 2-fold, 19 hours. An excerpt:
A. AREc32 Luciferase Reporter Assay The AREc32 luciferase reporter assay allows for quantitative assessment of the endogenous activity of the Nrf2 transcription factor in cultured mammalian cells. AREc32 cells are derived from MCF-7 human breast carcinoma cells that were stably transfected with a reporter construct that contains the firefly luciferase gene located downstream of eight copies of the rat GSTA2 antioxidant response element (ARE) sequence (Wang et al., 2006; CXR Biosciences). Active NRF2 binds to the ARE sequences and increases expression of the firefly luciferase gene. […] Luciferase activity was determined using the ONE-Glo Luciferase assay (Promega). The luminescence signal was measured on a BMG Pherastar microplate reader. The mean luminescence value from test compound-treated wells was normalized to that from DMSO-treated wells and was represented as fold-induction. Data were analyzed using GraphPad Prism version 6.00 for Windows, GraphPad Software, La Jolla Calif. USA. A non-linear regression curve with log (agonist) vs. response using a variable slope was used to fit the data. […] EC2× values were interpolated from the curve.
A general note: Reporter assays use an easily measured gene product as a stand-in for the process of interest.

Structures are written as SMILES.

With `COc1nc(OC)c2c(n1)[C@]1(C)C=C(C#N)C(=O)[C@H](C)[C@H]1CC2` [T1], the “HRF2 ARE 2×” value was determined as 487 nM.

Turning to `COc1cc(-c2nc(OC)c3c(n2)[C@]2(C)C=C(C#N)C(=O)[C@H](C)[C@H]2CC3)ccn1` [T2], the “HRF2 ARE 2×” value is listed as 247 nM.

`COc1nc(-c2ccnc(C)c2)nc2c1CC[C@@H]1[C@@H](C)C(=O)C(C#N)=C[C@@]21C` [T3]: the “HRF2 ARE 2×” value is given as 232 nM.

Take `COc1nc(-c2ccncc2C)nc2c1CC[C@@H]1[C@@H](C)C(=O)C(C#N)=C[C@@]21C` [T4]: the “HRF2 ARE 2×” value is listed as 449 nM.

Regarding `COc1nc(-c2ccncc2)nc2c1CC[C@@H]1[C@@H](C)C(=O)C(C#N)=C[C@@]21C` [T5], the “HRF2 ARE 2×” value worked out at 365 nM.

For the compound `COc1nc(-c2ccnc(F)c2)nc2c1CC[C@@H]1[C@@H](C)C(=O)C(C#N)=C[C@@]21C` [T6], the “HRF2 ARE 2×” value was determined as 341 nM.

Turning to `COc1nc(-c2cccnc2)nc2c1CC[C@@H]1[C@@H](C)C(=O)C(C#N)=C[C@@]21C` [T7], the “HRF2 ARE 2×” value came to 388 nM.

On to `C[C@H]1C(O)=C(C#N)C[C@@]2(C)c3nc(-c4ccncc4)nc(-c4ccccc4)c3CC[C@H]12` [T13], for which the “HRF2 ARE 2×” value is listed as over 2000 nM.

As for `C[C@H]1C(=O)C(C#N)=C[C@@]2(C)c3nc(-c4ccncc4)nc(-c4ccccc4)c3CC[C@H]12` [T14], the “HRF2 ARE 2×” value came to 281 nM.

For the compound `C[C@H]1C(=O)[C@@]2(C#N)O[C@H]2[C@@]2(C)c3nc(-c4ccncc4)nc(-c4ccccc4)c3CC[C@H]12` [T15], the “HRF2 ARE 2×” value came out at 738 nM.

Take `C[C@H]1C(=O)C(C(N)=O)=C[C@@]2(C)c3nc(-c4ccncc4)nc(-c4ccccc4)c3CC[C@H]12` [T16]: the “HRF2 ARE 2×” value was 1000 nM.

With `Cc1ccc(S(=O)(=O)Oc2nc(-c3ccncc3)nc3c2CC[C@@H]2[C@@H](C)C(=O)C(C#N)=C[C@@]32C)cc1` [T18], the “HRF2 ARE 2×” value was 381 nM.

Consider `C[C@H]1C(=O)C(C#N)=C[C@@]2(C)c3nc(-c4ccccc4)nc(-c4ccccc4)c3CC[C@H]12` [T19], for which the “HRF2 ARE 2×” value was determined as 741 nM.

Regarding `C[C@H]1C(=O)C(C#N)=C[C@@]2(C)c3nc(-c4ccc(C(F)(F)F)cc4)nc(-c4ccccc4)c3CC[C@H]12` [T20], the “HRF2 ARE 2×” value amounted to 608 nM.

Take `C[C@H]1C(=O)C(C#N)=C[C@@]2(C)c3nc(-c4ccncc4)nc(-c4ccc(CO)cc4)c3CC[C@H]12` [T21]: the “HRF2 ARE 2×” value is given as 443 nM.

`C[C@H]1C(=O)C(C#N)=C[C@@]2(C)c3ncnc(-c4ccccc4)c3CC[C@H]12` [T22]: the “HRF2 ARE 2×” value was found to be 90 nM.

Take `C[C@H]1C(=O)C(C#N)=C[C@@]2(C)c3nc(-c4ccncc4)nc(-c4ccc(C(F)(F)F)cc4)c3CC[C@H]12` [T24]: the “HRF2 ARE 2×” value is 171 nM.

With `C[C@H]1C(=O)C(C#N)=C[C@@]2(C)c3nc(-c4ccncc4)nc(-c4cccnc4)c3CC[C@H]12` [T25], the “HRF2 ARE 2×” value was 449 nM.

Turning to `C[C@H]1C(=O)C(C#N)=C[C@@]2(C)c3nc(-c4ccncc4)nc(-c4cccc(C(F)(F)F)c4)c3CC[C@H]12` [T26], the “HRF2 ARE 2×” value worked out at 267 nM.

For the compound `Cc1ccc(-c2nc(-c3ccncc3)nc3c2CC[C@@H]2[C@@H](C)C(=O)C(C#N)=C[C@@]32C)cc1` [T27], the “HRF2 ARE 2×” value worked out at 181 nM.

On to `C[C@H]1C(=O)C(C#N)=C[C@@]2(C)c3nc(-c4ccncc4)nc(-c4ccc(Cl)cc4)c3CC[C@H]12` [T28], for which the “HRF2 ARE 2×” value is 141 nM.

As for `C[C@H]1C(=O)C(C#N)=C[C@@]2(C)c3nc(-c4ccncc4)nc(-c4ccncc4)c3CC[C@H]12` [T29], the “HRF2 ARE 2×” value was 484 nM.

As for `COc1ccc(-c2nc(-c3ccncc3)nc3c2CC[C@@H]2[C@@H](C)C(=O)C(C#N)=C[C@@]32C)cc1` [T30], the “HRF2 ARE 2×” value came to 136 nM.

Consider `C[C@H]1C(=O)C(C#N)=C[C@@]2(C)c3nc(-c4ccncc4)nc(-c4ccc(Cl)c(Cl)c4)c3CC[C@H]12` [T31], for which the “HRF2 ARE 2×” value is given as 186 nM.

On to `C[C@H]1C(=O)C(C#N)=C[C@@]2(C)c3nc(N)nc(-c4ccccc4)c3CC[C@H]12` [T34], for which the “HRF2 ARE 2×” value worked out at 469 nM.
